Reference: US11000033B2, “Ketone or oxime compound, and herbicide” (NISSAN CHEMICAL CORPORATION, priority 2014, dated 2021)

Tests used:
Format in all cases: in vivo
[1] = system: wheat; experiment: Test Example 5: effect on crop by foliage application, plastic box (symbol e); details: 320 g/ha, 3 weeks after application
In short: (§1)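 Crop and weed seeds sown in spots in sterilized diluvial soil in plastic boxes and covered with about 1.5 cm soil. Plants raised in a greenhouse at 25° C. to 30° C. for foliar application.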

[2] = system: Digitaria ciliaris; experiment: Test Example 4: herbicidal effect by soil treatment (symbol F)
In short: (§2)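 Seeds were sown in sterilized diluvial soil, covered with about 1.5 cm of soil, and the soil surface was sprayed with a water-diluted emulsion of the compound at a predetermined rate. Plants grew in a greenhouse at 25° C. to 30° C.; effects were scored visually 3 weeks after application.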

[3] = system: corn; experiment: Test Example 4: effect on crop by soil treatment (symbol c); details: for c: corn, effect on crop grade: application herbicide amount 320 g/ha; for c: corn, effect grade on crop: 320 g/ha
In short: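 Plants are raised in a greenhouse (25° C. to 30° C.) from spot-sown seed, which sits under about 1.5 cm of sterilized diluvial soil in a box shared with weed species.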

[4] = system: corn; experiment: Test Example 5: effect on crop by foliage application, plastic box (symbol c); details: 320 g/ha, 3 weeks after application
In short: as §1

[5] = system: Scirpus juncoides; experiment: Test Example 2: herbicidal activity, application during weed generation in submerged conditions (symbol B); details: Table 23; application herbicide amount 320 g/ha; grade 0-5 by criteria of Test Example 1
In short: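 Seeds sown in flooded alluvial soil (4 cm water) were grown in a 25-30° C greenhouse. At the one- to two-leaf stage, diluted emulsion of compound was applied to the water surface at a predetermined rate. Effect was scored 3 weeks later.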

[6] = system: Galium spurium; experiment: Test Example 4: herbicidal effect by soil treatment (symbol Q)
In short: as §2

[7] = system: beet; experiment: Test Example 5: effect on crop by foliage application, plastic box (symbol f); details: 320 g/ha, 3 weeks after application
In short: as §1

[8] = system: rapeseed; experiment: Test Example 4: effect on crop by soil treatment (symbol g); details: for g: rapeseed, effect on crop grade: application herbicide amount 320 g/ha; for g: rapeseed, effect grade on crop: 320 g/ha
In short: (§3)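 Crop seed is sown in spots together with several weed species in a box of sterilized diluvial soil. It is covered by about 1.5 cm of soil and kept in a greenhouse held between 25° C. and 30° C.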

[9] = system: Lolium multiflorum Lam.; experiment: Test Example 5: herbicidal effect by foliage application, plastic box (symbol K); details: 320 g/ha, 3 weeks after application
In short: (§4)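 Herbicide, formulated as an emulsion and diluted in water, is sprayed onto the aerial parts of 14-day seedlings. These were grown at 25° C. to 30° C. in sterilized diluvial soil; effects are graded after 3 weeks.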

[10] = system: transplanted rice plant; experiment: Test Example 1: effect on crop, application before weed generation in submerged conditions (symbol a); details: application herbicide amount 320 g/ha
In short: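 Rice at 2.5 leaf stage transplanted into submerged soil (4 cm depth) sown with three weed species; herbicide applied before weed emergence.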

[11] = system: rice; experiment: Test Example 4: effect on crop by soil treatment (symbol b); details: for b: directly sowed rice plant, effect on crop grade: application herbicide amount 320 g/ha; for b: directly sowed rice plant, effect grade on crop: 320 g/ha
In short: as §3

[12] = system: Veronica persica; experiment: Test Example 5: herbicidal effect by foliage application, plastic box (symbol R); details: 320 g/ha, 3 weeks after application
In short: as §4

[13] = system: Veronica persica; experiment: Test Example 4: herbicidal effect by soil treatment (symbol R)
In short: as §2

[14] = system: Alopecurus myosuroides; experiment: Test Example 5: herbicidal effect by foliage application, plastic box (symbol J); details: 320 g/ha, 3 weeks after application
In short: as §4

[15] = system: Alopecurus myosuroides; experiment: Test Example 4: herbicidal effect by soil treatment (symbol J)
In short: as §2

[16] = application herbicide amount 320 g/ha

| SMILES | e: wheat, effect on crop grade [1] | F: Digitaria ciliaris, herbicidal effect grade [2, 16] | c: corn, effect on crop grade [3] | c: corn, effect on crop grade [4] | Herbicidal effect grade, B: Scirpus juncoides [5] | Q: Galium spurium, herbicidal effect grade [6, 16] | f: beet, effect on crop grade [7] | g: rapeseed, effect on crop grade [8] | K: Lolium multiflorum Lam., herbicidal effect grade [9] | Effect grade on crop, a: transplanted rice plant [10] | b: directly sowed rice plant, effect on crop grade [11] | R: Veronica persica, herbicidal effect grade [12] | R: Veronica persica, herbicidal effect grade [13, 16] | J: Alopecurus myosuroides, herbicidal effect grade [14] | J: Alopecurus myosuroides, herbicidal effect grade [15, 16] | F: Digitaria ciliaris, herbicidal effect grade ([2]; 320 g/ha) | c: corn, effect grade on crop [3] | Q: Galium spurium, herbicidal effect grade ([6]; 320 g/ha) | g: rapeseed, effect grade on crop [8] | b: directly sowed rice plant, effect grade on crop [11] | also measured |
| --- | --- | --- | --- | --- | --- | --- | --- | --- | --- | --- | --- | --- | --- | --- | --- | --- | --- | --- | --- | --- | --- |
| CON=C(C)CC1CC(O)=C(c2c(C)cc(-c3ccc(C)cc3)cc2C)C1=O (mixture of isomers) [6-018] | 2 (Herbicidal ratio of 20% or higher and lower than 40%) | 5 (Herbicidal ratio of 90% or more (almost completely withered)) | 0 (Herbicidal ratio of 5% or lower (almost no effect)) | 5 (Herbicidal ratio of 90% or more (almost completely withered)) | 4 (Herbicidal ratio of 70% or higher and lower than 90%) | 0 (Herbicidal ratio of 5% or lower (almost no effect)) | 1 (Herbicidal ratio of 5% or higher and lower than 20%) | 0 (Herbicidal ratio of 5% or lower (almost no effect)) | 5 (Herbicidal ratio of 90% or more (almost completely withered)) | 5 (Herbicidal ratio of 90% or more (almost completely withered)) | 3 (Herbicidal ratio of 40% or higher and lower than 70%) | 4 (Herbicidal ratio of 70% or higher and lower than 90%) | 0 (Herbicidal ratio of 5% or lower (almost no effect)) | 5 (Herbicidal ratio of 90% or more (almost completely withered)) | 5 (Herbicidal ratio of 90% or more (almost completely withered)) | – | – | – | – | – | – |
| CON=C(C)CC1CC(OC(=O)c2ccccc2C(F)(F)F)=C(c2c(C)cc(C)cc2C)C1=O (stereo not drawn) [1-154] | – | – | – | – | 4 (Herbicidal ratio of 70% or higher and lower than 90%) | – | – | – | – | 5 (Herbicidal ratio of 90% or more (almost completely withered)) | – | – | – | – | – | 5 (Herbicidal ratio of 90% or more (almost completely withered)) | 0 (Herbicidal ratio of 5% or lower (almost no effect)) | 0 (Herbicidal ratio of 5% or lower (almost no effect)) | 4 (Herbicidal ratio of 70% or higher and lower than 90%) | 5 (Herbicidal ratio of 90% or more (almost completely withered)) | e: wheat, effect on crop (criteria 0-5) [1]: 5 (Herbicidal ratio of 90% or more (almost completely withered)); c: corn, effect on crop (criteria 0-5) [4]: 3 (Herbicidal ratio of 40% or higher and lower than 70%); f: beet, effect on crop (criteria 0-5) [7]: 1 (Herbicidal ratio of 5% or higher and lower than 20%); K: Lolium multiflorum Lam., herbicidal effect (criteria 0-5) [9]: 5 (Herbicidal ratio of 90% or more (almost completely withered)); R: Veronica persica, herbicidal effect (criteria 0-5) [12]: 3 (Herbicidal ratio of 40% or higher and lower than 70%); R: Veronica persica, herbicidal effect grade ([13]; 320 g/ha): 0 (Herbicidal ratio of 5% or lower (almost no effect)); J: Alopecurus myosuroides, herbicidal effect (criteria 0-5) [14]: 5 (Herbicidal ratio of 90% or more (almost completely withered)); J: Alopecurus myosuroides, herbicidal effect grade ([15]; 320 g/ha): 5 (Herbicidal ratio of 90% or more (almost completely withered)) |
| CON=C(C)CC1CC(O)=C(c2c(C)cc(OCC(F)(F)F)cc2C)C1=O (stereo not drawn) [6-049] | 5 (Herbicidal ratio of 90% or more (almost completely withered)) | 5 (Herbicidal ratio of 90% or more (almost completely withered)) | 5 (Herbicidal ratio of 90% or more (almost completely withered)) | 5 (Herbicidal ratio of 90% or more (almost completely withered)) | 4 (Herbicidal ratio of 70% or higher and lower than 90%) | 3 (Herbicidal ratio of 40% or higher and lower than 70%) | 4 (Herbicidal ratio of 70% or higher and lower than 90%) | 5 (Herbicidal ratio of 90% or more (almost completely withered)) | 5 (Herbicidal ratio of 90% or more (almost completely withered)) | 5 (Herbicidal ratio of 90% or more (almost completely withered)) | 5 (Herbicidal ratio of 90% or more (almost completely withered)) | 5 (Herbicidal ratio of 90% or more (almost completely withered)) | 4 (Herbicidal ratio of 70% or higher and lower than 90%) | 5 (Herbicidal ratio of 90% or more (almost completely withered)) | 5 (Herbicidal ratio of 90% or more (almost completely withered)) | – | – | – | – | – | – |
| CON=C(C)CC1CC(O)=C(c2c(C)cc(-c3ccc(Cl)nc3)cc2C)C1=O (mixture of isomers) [6-035] | 4 (Herbicidal ratio of 70% or higher and lower than 90%) | 5 (Herbicidal ratio of 90% or more (almost completely withered)) | 2 (Herbicidal ratio of 20% or higher and lower than 40%) | 5 (Herbicidal ratio of 90% or more (almost completely withered)) | 4 (Herbicidal ratio of 70% or higher and lower than 90%) | 0 (Herbicidal ratio of 5% or lower (almost no effect)) | 0 (Herbicidal ratio of 5% or lower (almost no effect)) | 0 (Herbicidal ratio of 5% or lower (almost no effect)) | 5 (Herbicidal ratio of 90% or more (almost completely withered)) | 5 (Herbicidal ratio of 90% or more (almost completely withered)) | 5 (Herbicidal ratio of 90% or more (almost completely withered)) | 4 (Herbicidal ratio of 70% or higher and lower than 90%) | 3 (Herbicidal ratio of 40% or higher and lower than 70%) | 5 (Herbicidal ratio of 90% or more (almost completely withered)) | 4 (Herbicidal ratio of 70% or higher and lower than 90%) | – | – | – | – | – | – |
| CON=C(C)CC1CC(OC(=O)N(C)c2ccccc2)=C(c2c(C)cc(C)cc2C)C1=O (stereo not drawn) [1-159] | 2 (Herbicidal ratio of 20% or higher and lower than 40%) | – | – | 0 (Herbicidal ratio of 5% or lower (almost no effect)) | 1 (Herbicidal ratio of 5% or higher and lower than 20%) | – | 2 (Herbicidal ratio of 20% or higher and lower than 40%) | – | 5 (Herbicidal ratio of 90% or more (almost completely withered)) | 1 (Herbicidal ratio of 5% or higher and lower than 20%) | – | 0 (Herbicidal ratio of 5% or lower (almost no effect)) | – | 5 (Herbicidal ratio of 90% or more (almost completely withered)) | – | 4 (Herbicidal ratio of 70% or higher and lower than 90%) | 0 (Herbicidal ratio of 5% or lower (almost no effect)) | 0 (Herbicidal ratio of 5% or lower (almost no effect)) | 0 (Herbicidal ratio of 5% or lower (almost no effect)) | 3 (Herbicidal ratio of 40% or higher and lower than 70%) | R: Veronica persica, herbicidal effect grade ([13]; 320 g/ha): 0 (Herbicidal ratio of 5% or lower (almost no effect)); J: Alopecurus myosuroides, herbicidal effect grade ([15]; 320 g/ha): 4 (Herbicidal ratio of 70% or higher and lower than 90%) |
